# Data as given in patent US20120225862A1, “HETEROARYL BENZAMIDES, COMPOSITIONS AND METHODS OF USE” (AUCKLAND UNIVSERVICES LIMITED, priority 2009, published 2012).
# How the values were obtained:
# RCC4/VHL = assay: XTT IC50 assay, selectivity RCC4 versus RCC4 with VHL-reintroduced; assay type: cell-based, human; conditions: selectivity ratio of XTT IC50 values, RCC4 vs RCC4/VHL
# Procedure: (§1) RCC4 parental and RCC4 with VHL-reintroduced (RCC4/VHL), SN12C and SN12C-CSCG-VHL shRNA were maintained in DMEM supplemented with 10% FCS.
# (§2) IC50 values for compounds were determined by XTT assay. For 2,3-bis[2-methoxy-4-nitro-5-sulfophenyl]-2H-tetrazolium-5-carboxanilide inner salt (XTT) assays, five thousand cells were plated in 96-well plates. The next day, vehicle or drug was added to each well and incubated for four days. Media was aspirated and phenol red-free medium with 0.3 mg/mL XTT and 2.65 ug/mL N-methyl dibenzopyrazine methyl sulfate was added. This was incubated at 37° C. for 1-2 hours and absorbance was read at 450 nm. IC50 values for each compound were calculated using linear interpolation.
# (§3) For 2,3-bis[2-methoxy-4-nitro-5-sulfophenyl]-2H-tetrazolium-5-carboxanilide (XTT) assays, five thousand cells were plated in 96-well plates. The next day, vehicle (DMSO) or drug was added by serial dilution. Four days later, media were aspirated, XTT solution (0.3 mg/ml of XTT (Sigma), 2.65 mg/ml N-methyl dibenxopyrazine methyl sulfate (Simga) in phenol red-free media) was added, and the plates were incubated at 37° C. for 1-2 hours. Metabolism of XTT was quantified by measuring the absorbance at 450 nm. IC50s were calculated using linear interpolation. For clonogenic survival assays, three hundred cells were plated per 60 mm tissue culture dish. The cells were allowed to attach overnight and then treated with vehicle or drug for 14 days. Colonies were fixed and stained with crystal violet (0.1% crystal violet in 95% ethanol). All conditions were measured in triplicate and each experiment was done in duplicate or triplicate. To determine necrosis, cells were treated with drug for a given time point. Media and cells were collected, centrifugated, and resuspended in 0.4% trypan blue (Invitrogen). Live and dead cells were counted on a hematocytometer.
# RCC4 = assay: XTT IC50 / viability assay, RCC4 cells; assay type: cell-based, human; conditions: Homo sapiens, RCC4, 96 h; XTT assay, four days
# Procedure: as §1, §2, §3
SMILES,Ratio (RCC4:RCC/VHL) (RCC4/VHL),IC50 (RCC4) [nM]
"Cc1nc(-c2cccc(S(=O)(=O)NCc3ccc(C(=O)Nc4cccnc4)cc3)c2)cs1 [Example 31, 4-[({[3-(2-Methyl-1,3-thiazol-4-yl)phenyl]sulfonyl}amino)methyl]-N-(3-pyridinyl)benzamide]",b (“b” reflects from 10 to 100),1000 to 20000
"CC(C)(C)c1ccc(S(=O)(=O)NCc2ccc(C(=O)Nc3cnccc3C(F)(F)F)cc2)cc1 [Example 122, 4-({[(4-tert-Butylphenyl)sulfonyl]amino}methyl)-N-[4-(trifluoromethyl)-3-pyridinyl]benzamide]",a (“a” reflects a ratio of RCC4/RCC-VHL+ ranging from 1 to 10),1000 to 20000
"O=C(Nc1cccnc1)c1ccc(CNS(=O)(=O)c2ccc(CN3CCCC3)cc2)cc1 [Example 80, 4-[({[4-(1-Pyrrolidinylmethyl)phenyl]sulfonyl}amino)methyl]-N-(3-pyridinyl)-benzamide]",c (“c” reflects a ratio of >100),< 1000
"CN(C(=O)c1ccc(CNS(=O)(=O)c2ccc(C(C)(C)C)cc2)cc1)c1cccnc1 [Example 89, 4-[(4-tert-Butylphenylsulfonamido)methyl]-N-methyl-N-(3-pyridinyl)benzamide]",a (“a” reflects a ratio of RCC4/RCC-VHL+ ranging from 1 to 10),1000 to 20000
"O=C(Nc1cccnc1)c1ccc(CNS(=O)(=O)c2ccccc2Br)cc1 [Example 13, 4-((2-Bromophenylsulfonamido)methyl)-N-(pyridin-3-yl)benzamide]",a (“a” reflects a ratio of RCC4/RCC-VHL+ ranging from 1 to 10),1000 to 20000
"O=C(Nc1cccnc1)c1ccc(CNS(=O)(=O)c2ccc3ccccc3c2)cc1 [Example 72, 4-((Naphthalene-2-sulfonamido)methyl)-N-(pyridin-3-yl)benzamide]",b (“b” reflects from 10 to 100),1000 to 20000
"CN(C)CCNc1ccc(S(=O)(=O)NCc2ccc(C(=O)Nc3cccnc3)cc2)cc1 [Example 133, 4-({[(4-{[2-(Dimethylamino)ethyl]amino}phenyl)sulfonyl]amino}methyl)-N-(3-pyridinyl)benzamide]",c (“c” reflects a ratio of >100),< 1000
"O=C(Nc1cccnc1)c1ccc(CNS(=O)(=O)c2ccc(-c3ccccc3)cc2)cc1 [Example 54, 4-((Biphenyl-4-ylsulfonamido)methyl)-N-(pyridin-3-yl)benzamide]",b (“b” reflects from 10 to 100),1000 to 20000
"COCC#Cc1ccc(S(=O)(=O)NCc2ccc(C(=O)Nc3cccnc3)cc2)cc1 [Example 98, 4-{[({4-[3-(Methyloxy)-1-propynyl]phenyl}sulfonyl)amino]methyl}-N-(3-pyridinyl)benzamide]",a (“a” reflects a ratio of RCC4/RCC-VHL+ ranging from 1 to 10),1000 to 20000
"CCCCOc1ccc(S(=O)(=O)NCc2ccc(C(=O)Nc3cccnc3)cc2)cc1 [Example 34, 4-((4-Butoxyphenylsulfonamido)methyl)-N-(pyridin-3-yl)benzamide]",b (“b” reflects from 10 to 100),< 1000
"CC(C)(C)c1ccc(CNCc2ccc(C(=O)Nc3cccnc3)cc2)cc1 [Compound B, reference compound]",a (“a” reflects a ratio of RCC4/RCC-VHL+ ranging from 1 to 10),1000 to 20000
"O=C(Nc1cccnc1)c1ccc(CNS(=O)(=O)c2ccc(N3CCOCC3)cc2)cc1 [Example 127, 4-[({[4-(4-Morpholinyl)phenyl]sulfonyl}amino)methyl]-N-(3-pyridinyl)benzamide]",b (“b” reflects from 10 to 100),< 1000
"CN(C)CCCc1ccc(S(=O)(=O)NCc2ccc(C(=O)Nc3cccnc3)cc2)cc1 [Example 142, 4-{[({4-[3-(Dimethylamino)propyl]phenyl}sulfonyl)amino]methyl}-N-(3-pyridinyl)benzamide]",b (“b” reflects from 10 to 100),< 1000
"O=C(Nc1cccnc1)c1ccc(CNS(=O)(=O)c2cccc(C(F)(F)F)c2)cc1 [Example 23, N-(Pyridin-3-yl)-4-((3-(trifluoromethyl)phenylsulfonamido)methyl)benzamide]",b (“b” reflects from 10 to 100),< 1000
"COC1CCN(Cc2ccc(S(=O)(=O)NCc3ccc(C(=O)Nc4cccnc4)cc3)cc2)CC1 [Example 84, 4-{[({4-[(4-Methoxy-1-piperidinyl)methyl]phenyl}sulfonyl)amino]methyl}-N-(3-pyridinyl)benzamide]",c (“c” reflects a ratio of >100),< 1000
"CCCc1ccc(S(=O)(=O)NCc2ccc(C(=O)Nc3cccnc3)cc2)cc1 [Example 37, 4-((4-Propylphenylsulfonamido)methyl)-N-(pyridin-3-yl)benzamide]",b (“b” reflects from 10 to 100),< 1000
"COc1ccc(S(=O)(=O)NCc2ccc(C(=O)Nc3cccnc3)cc2)cc1OC [Example 61, 4-((3,4-Dimethoxyphenylsulfonamido)methyl)-N-(pyridin-3-yl)benzamide]",c (“c” reflects a ratio of >100),< 1000
"O=C(Nc1cccnc1)c1ccc(CNS(=O)(=O)c2ccc(-c3ncccn3)cc2)cc1 [Example 57, 4-[({[4-(2-Pyrimidinyl)phenyl]sulfonyl}amino)methyl]-N-(3-pyridinyl)-benzamide]",b (“b” reflects from 10 to 100),< 1000
"CN1CCN(c2cccc(S(=O)(=O)NCc3ccc(C(=O)Nc4cccnc4)cc3)c2)CC1 [Example 132, 4-[({[3-(4-Methyl-1-piperazinyl)phenyl]sulfonyl}amino)methyl]-N-(3-pyridinyl)benzamide]",b (“b” reflects from 10 to 100),< 1000
"Cc1cc(C)cc(COC(=O)NCc2ccc(C(=O)Nc3cccnc3)cc2)c1 [Compound A, reference compound]",a (“a” reflects a ratio of RCC4/RCC-VHL+ ranging from 1 to 10),> 20000
"CCN(CC)Cc1ccc(S(=O)(=O)NCc2ccc(C(=O)Nc3cccnc3)cc2)cc1 [Example 78, 4-{[({4-[(Diethylamino)methyl]phenyl}sulfonyl)amino]methyl}-N-(3-pyridinyl)benzamide]",c (“c” reflects a ratio of >100),< 1000
"CN(C)c1cccc2c(S(=O)(=O)NCc3ccc(C(=O)Nc4cccnc4)cc3)cccc12 [Example 73, 4-((5-(Dimethylamino)naphthalene-1-sulfonamido)methyl)-N-(pyridin-3-yl)benzamide]",c (“c” reflects a ratio of >100),< 1000
"O=C(Nc1cccnc1)c1ccc(CNS(=O)(=O)c2ccc(Cc3ccccc3)cc2)cc1 [Example 135, 4-({[(4-Benzylphenyl)sulfonyl]amino}methyl)-N-(3-pyridinyl)benzamide]",b (“b” reflects from 10 to 100),< 1000
"O=C(Nc1cccnc1)c1ccc(CNS(=O)(=O)c2ccc(-n3cccn3)cc2)cc1 [Example 58, 4-[({[4-(1H-Pyrazol-1-yl)phenyl]sulfonyl}amino)methyl]-N-(3-pyridinyl)benzamide]",a (“a” reflects a ratio of RCC4/RCC-VHL+ ranging from 1 to 10),1000 to 20000
"O=C(Nc1cccnc1)c1ccc(CNS(=O)(=O)c2ccc(CCCO)cc2)cc1 [Example 104, 4-[({[4-(3-Hydroxypropyl)phenyl]sulfonyl}amino)methyl]-N-(3-pyridinyl)benzamide]",c (“c” reflects a ratio of >100),< 1000
"O=C(Nc1cccnc1)c1ccc(CNS(=O)(=O)c2cccc(N3CCOCC3)c2)cc1 [Example 126, 4-[({[3-(4-Morpholinyl)phenyl]sulfonyl}amino)methyl]-N-(3-pyridinyl)benzamide]",b (“b” reflects from 10 to 100),1000 to 20000
"O=C(Nc1cccnc1)c1ccc(CNS(=O)(=O)c2ccccc2Cl)cc1 [Example 12, 4-((2-Chlorophenylsulfonamido)methyl)-N-(pyridin-3-yl)benzamide]",a (“a” reflects a ratio of RCC4/RCC-VHL+ ranging from 1 to 10),1000 to 20000
"O=C(Nc1cccnc1)c1ccc(CNS(=O)(=O)c2ccc(CN3CCOCC3)cc2)cc1 [Example 83, 4-[({[4-(4-Morpholinylmethyl)phenyl]sulfonyl}amino)methyl]-N-(3-pyridinyl)benzamide]",c (“c” reflects a ratio of >100),< 1000
"N#Cc1ccccc1S(=O)(=O)NCc1ccc(C(=O)Nc2cccnc2)cc1 [Example 16, 4-((2-Cyanophenylsulfonamido)methyl)-N-(pyridin-3-yl)benzamide]",a (“a” reflects a ratio of RCC4/RCC-VHL+ ranging from 1 to 10),> 20000
